Measurements taken from ChEMBL document CHEMBL5030532, “Synthesis and Evaluation of Galloyl Conjugates of Flavanones as BMP-2 Upregulators with Promising Bone Anabolic and Fracture Healing Properties” (J Med Chem, 2021).
Calls of active or inactive are those of the source. The calls are words filed in the database; no cut-off is given here.

Experiments:
[1] = Induction of osteogeneis in rat calvarial osteoblast cells assessed as fold upregulation of Col1 gene expression at 100 pM measured after 48 hrs by qPCR analysis relative to control; assay type: functional
Calvarial osteoblast [2] = experiment: Induction of mineralization in rat Calvarial osteoblast cells measured at 100 pM measured for 14 days by Cetylpyridinium chloride method; assay type: functional, tissue-based; conditions: time 14.0 day
Calvarial osteoblast [3] = experiment: Cytotoxicity against rat Calvarial osteoblast cells assessed as viable cells measured at 0.000001 to 1 uM measure after 48 hrs by cell viability assay; assay type: cell-based; conditions: dose lower 1e-06 µM, dose upper 1 µM
[4] = Induction of osteogeneis in rat calvarial osteoblast cells assessed as fold upregulation of RUNX2 gene expression at 1 pM measured after 48 hrs by qPCR analysis relative to control; assay type: functional
[5] = Induction of osteogeneis in rat calvarial osteoblast cells assessed as fold upregulation of ALP gene expression at 100 pM measured after 48 hrs by qPCR analysis relative to control; assay type: functional
Calvarial osteoblast [6] = experiment: Induction of osteoblast differentiation in rat Calvaria osteoblast cells measured assessed as maximal increase in alkaline phosphatase activity incubated for 48 hrs using PNPP as substrate; assay type: functional
[7] = Induction of osteogeneis in rat calvarial osteoblast cells assessed as fold upregulation of BMP-2 gene expression at 100 pM measured after 48 hrs by qPCR analysis relative to control; assay type: functional
Calvarial osteoblast [8] = experiment: Induction of osteogenesis in rat calvarial osteoblast cells assessed as fold upregulation of BMP-2 gene expression at 10 nM measured after 48 hrs by qPCR analysis relative to control; assay type: functional
[9] = Induction of osteogeneis in rat calvarial osteoblast cells assessed as fold upregulation of Col1 gene expression at 10 nM measured after 48 hrs by qPCR analysis relative to control; assay type: functional
Calvarial osteoblast [10] = experiment: Induction of mineralization in rat Calvarial osteoblast cells measured at 10 nM measured for 14 days by Cetylpyridinium chloride method; assay type: functional, tissue-based; conditions: time 14.0 day
Calvarial osteoblast [11] = experiment: Induction of rat Calvarial osteoblast cell proliferation at 0.000001 to 1 uM measured after 48 hrs by MTT assay; assay type: functional, tissue-based; conditions: dose lower 1e-06 µM, dose upper 1.0 µM
[12] = Induction of osteogeneis in rat calvarial osteoblast cells assessed as fold upregulation of RUNX2 gene expression at 10 nM measured after 48 hrs by qPCR analysis relative to control; assay type: functional
Rattus norvegicus [13] = experiment: Induction of bone regeneration in adult rat femur osteotomy model assessed as increase in calcein labeled callus measured at 5 mg/kg, po for 14 days by calcein labeling study relative to control; assay type: functional; conditions: time 14 day
[14] = Volume of distribution in Sprague-Dawley rat at 10 mg/kg, po by LC-MS/MS analysis; assay type: ADME, organism-based; conditions: in vivo
Calvarial osteoblast [15] = experiment: Induction of osteogenesis in rat calvarial osteoblast cells assessed as upregulation of BMP-2 protein expression at 1 pM measured after 48 hrs by immunoblotting analysis; assay type: functional, cell-based
Rattus norvegicus [16] = experiment: Induction of bone regeneration in adult rat femur osteotomy model assessed as increase in bone volume/tissue volume fraction measured at 5 mg/kg, po for 14 days by microCT analysis relative to control; assay type: functional; conditions: time 14 day
[17] = Clearance in Sprague-Dawley rat at 10 mg/kg, po by LC-MS/MS analysis; assay type: ADME, organism-based; conditions: in vivo
Rattus norvegicus [18] = experiment: Induction of new bone formation in rat pups assessed as mineralized bone formation in calvaria by measuring bone formation rate at 10 mg/kg, sc measured after 5 days by fluorescent microscopy by relative to control; assay type: functional, organism-based; conditions: time 5.0 day
Rattus norvegicus [19] = experiment: Induction of bone regeneration in adult rat femur osteotomy model assessed as restoration of bone morphology measured at 5 mg/kg, po for 14 days by toluidine blue staining based analysis; assay type: functional, organism-based; conditions: time 14.0 day
Rattus norvegicus [20] = experiment: Induction of new bone formation in rat pups assessed as mineralized bone formation in calvaria by measuring bone formation rate at 5 mg/kg, sc measured after 5 days by fluorescent microscopy by relative to control; assay type: functional, organism-based; conditions: time 5.0 day
Calvarial osteoblast [21] = experiment: Induction of osteoblast differentiation in rat Calvaria osteoblast cells measured assessed as increase in alkaline phosphatase activity at 10 pM incubated for 48 hrs using PNPP as substrate; assay type: functional, cell-based
[22] = Induction of osteogeneis in rat calvarial osteoblast cells assessed as fold upregulation of Col1 gene expression at 1 pM measured after 48 hrs by qPCR analysis relative to control; assay type: functional
Calvarial osteoblast [23] = experiment: Induction of osteoblast differentiation in rat Calvaria osteoblast cells measured assessed as increase in alkaline phosphatase activity at 0.000001 to 1 uM incubated for 48 hrs using PNPP as substrate in presence of noggin; assay type: functional, cell-based; conditions: dose lower 1e-06 µM, dose upper 1.0 µM
[24] = Induction of bone regeneration in adult rat femur osteotomy model assessed as fold increase in OCN expression in fracture calluses measured at 5 mg/kg, po for 14 days by […] relative to control; assay type: functional; conditions: time 14 day
[25] = Stability of the compound in simulated intestinal acid at pH 6.5 measured after 1 hr by LC-MS/MS analysis; assay type: ADME; conditions: read-out: Stability
[26] = Cmax in Sprague-Dawley rat at 10 mg/kg, po by LC-MS/MS analysis; assay type: ADME, organism-based; design: route oral, dose 10 mg/kg; conditions: in vivo
[27] = AUC in Sprague-Dawley rat at 10 mg/kg, po by LC-MS/MS analysis; assay type: ADME, organism-based; design: dose 10 mg/kg; conditions: in vivo
[28] = MRT in Sprague-Dawley rat at 5 mg/kg, po by LC-MS/MS analysis; assay type: ADME, organism-based; conditions: in vivo
[29] = Stability of the compound in simulated gastric acid at pH 1.2 measured after 1 hr by LC-MS/MS analysis; assay type: ADME; conditions: read-out: Stability
Calvarial osteoblast [30] = experiment: Induction of osteogeneis in rat calvarial osteoblast cells assessed as upregulation of RUNX2 protein expression at 1 pM measured after 48 hrs by immunoblotting analysis; assay type: functional, tissue-based
[31] = Stability in rat liver microsomes after 1 hr incubation by LC-MS/MS analysis; assay type: ADME, Microsome
[32] = MRT in Sprague-Dawley rat at 10 mg/kg, po by LC-MS/MS analysis; assay type: ADME, organism-based; conditions: in vivo
[33] = AUC in Sprague-Dawley rat at 5 mg/kg, po by LC-MS/MS analysis; assay type: ADME, organism-based; design: dose 5 mg/kg; conditions: in vivo
Rattus norvegicus [34] = experiment: In vivo induction of osteogenic activity in neonatal rat pups assessed as fold increase in BMP-2 gene expression in calvarial tissue at 5 mg/kg, sc administered for 6 days; assay type: functional, organism-based; conditions: Calvaria, time 6.0 day
Rattus norvegicus [35] = experiment: Induction of new bone formation in rat pups assessed as mineralized bone formation in calvaria by measuring increase in calvarial thickness at 5 mg/kg, sc measured after 5 days by Hematoxylin and eosin staining based quantitative histology; assay type: functional, organism-based; conditions: time 5.0 day
[36] = Half life in Sprague-Dawley rat at 5 mg/kg, po by LC-MS/MS analysis; assay type: ADME, organism-based; conditions: in vivo
Rattus norvegicus [37] = experiment: Induction of new bone formation in rat pups assessed as mineral apposition rate in calvaria at 5 mg/kg, sc measured after 5 days by fluorescent microscopy by relative to control; assay type: functional, organism-based; conditions: time 5.0 day
[38] = In vivo induction of osteogenic activity in neonatal rat pups assessed as fold increase in RUNX2 gene expression in calvarial tissue at 5 mg/kg, sc administered for 6 days; assay type: functional, Calvaria; conditions: time 6 day
[39] = Induction of osteogeneis in rat calvarial osteoblast cells assessed as fold upregulation of ALP gene expression at 1 pM measured after 48 hrs by qPCR analysis relative to control; assay type: functional
Rattus norvegicus [40] = experiment: Induction of bone regeneration in adult rat femur osteotomy model assessed as increase in trabecular number measured at 5 mg/kg, po for 14 days by microCT analysis relative to control; assay type: functional, organism-based; conditions: time 14.0 day
Calvarial osteoblast [41] = experiment: Induction of mineralization in rat Calvarial osteoblast cells measured at 1 pM measured for 14 days by Cetylpyridinium chloride method; assay type: functional, tissue-based; conditions: time 14.0 day
[42] = In vivo induction of osteogenic activity in neonatal rat pups assessed as fold increase in OCN gene expression in calvarial tissue at 10 mg/kg, sc administered for 6 days; assay type: functional, Calvaria; conditions: time 6 day
[43] = Volume of distribution in Sprague-Dawley rat at 5 mg/kg, po by LC-MS/MS analysis; assay type: ADME, organism-based; conditions: in vivo
[44] = Stability in rat plasma after 1 hr incubation by LC-MS/MS analysis; assay type: ADME, cell-free; conditions: read-out: Stability
[45] = Cmax in Sprague-Dawley rat at 5 mg/kg, po by LC-MS/MS analysis; assay type: ADME, organism-based; design: route oral, dose 5 mg/kg; conditions: in vivo
Calvarial osteoblast [46] = experiment: Induction of osteoblast differentiation in rat Calvaria osteoblast cells measured assessed as increase in alkaline phosphatase activity at 1 pM incubated for 48 hrs using PNPP as substrate; assay type: functional, cell-based
[47] = In vivo induction of osteogenic activity in neonatal rat pups assessed as fold increase in OCN gene expression in calvarial tissue at 5 mg/kg, sc administered for 6 days; assay type: functional, Calvaria; conditions: time 6 day
[48] = Half life in Sprague-Dawley rat at 10 mg/kg, po by LC-MS/MS analysis; assay type: ADME, organism-based; conditions: in vivo
[49] = Induction of bone regeneration in adult rat femur osteotomy model assessed as fold increase in Col1 gene expression in fracture calluses measured at 5 mg/kg, po for 14 days by […] relative to control; assay type: functional; conditions: time 14 day
[50] = Clearance in Sprague-Dawley rat at 5 mg/kg, po by LC-MS/MS analysis; assay type: ADME, organism-based; conditions: in vivo
Rattus norvegicus [51] = experiment: Induction of bone regeneration in adult rat femur osteotomy model assessed as increase in trabecular thickness measured at 5 mg/kg, po for 14 days by microCT analysis relative to control; assay type: functional, organism-based; conditions: time 14.0 day
[52] = Induction of osteogeneis in rat calvarial osteoblast cells assessed as fold upregulation of BMP-2 gene expression at 1 pM measured after 48 hrs by qPCR analysis relative to control; assay type: functional
Calvarial osteoblast [53] = experiment: Induction of osteoblast differentiation in rat Calvaria osteoblast cells measured assessed as increase in alkaline phosphatase activity at 0.000001 to 1 uM incubated for 48 hrs using PNPP as substrate; assay type: functional, cell-based; conditions: dose lower 1e-06 µM, dose upper 1.0 µM

COc1cc(C(=O)Nc2ccc3c(c2)C(=O)CC(c2ccccc2)O3)cc(OC)c1OC (stereo not given)
fold change (FC) [1]: 1.8 | Activity (Calvarial osteoblast [2]): Active | Activity (Calvarial osteoblast [3]): Non-Toxic | fold change (FC) [4]: 2 | fold change (FC) [5]: 1.3 | ECmax (Calvarial osteoblast [6]): 10 pM | fold change (FC) [7]: 1.9

COc1cc(C(=O)Nc2ccc3c(c2)C(O)CC(c2cccc(C)c2)O3)cc(OC)c1OC (stereo not given)
fold change (FC) (Calvarial osteoblast [8]): 1.83 | fold change (FC) [9]: 1.55 | Activity (Calvarial osteoblast [10]): Active | Activity (Calvarial osteoblast [3]): Non-Toxic | Activity (Calvarial osteoblast [11]): Active | fold change (FC) [5]: 2.3 | fold change (FC) [12]: 1.8 | ECmax (Calvarial osteoblast [6]): 100 pM

COc1cccc(C2CC(=O)c3cc(NC(=O)c4cc(OC)c(OC)c(OC)c4)ccc3O2)c1 (racemic)
Activity (Rattus norvegicus [13]): 130% | Vdss [14]: 12.99 L/kg | Activity (Calvarial osteoblast [15]): Active | Activity (Rattus norvegicus [16]): 44.3% | CL/F [17]: 25.7 mL/min/kg | Activity (Rattus norvegicus [18]): Active | Activity (Rattus norvegicus [19]): Active | Activity (Rattus norvegicus [20]): Active | Activity (Calvarial osteoblast [21]): Active | fold change (FC) [22]: 2.9 | Activity (Calvarial osteoblast [23]): inactive | fold change (FC) [24]: 2.2 | remaining at 1 h [25]: 88% | Cmax [26]: 858 ng/mL | AUC [27]: 6530 ng·h/mL | MRT [28]: 7.68 h | Activity (Calvarial osteoblast [3]): Non-Toxic | remaining at 1 h [29]: 69% | Activity (Calvarial osteoblast [11]): Toxic | Activity (Calvarial osteoblast [30]): Active | fold change (FC) [4]: 3.7 | Stability [31]: Stable | MRT [32]: 9.17 h | AUC [33]: 4820 ng·h/mL | Activity (Rattus norvegicus [34]): Dose-Dependent Effect | Activity (Rattus norvegicus [35]): Active | half-life [36]: 5.6 h | Activity (Rattus norvegicus [37]): inactive | fold change (FC) [38]: 2 | fold change (FC) [39]: 5.5 | Activity (Rattus norvegicus [40]): Active | Activity (Calvarial osteoblast [41]): Active | fold change (FC) [42]: 10 | Vdss [43]: 8.42 L/kg | remaining at 1 h [44]: 89% | Cmax [45]: 736 ng/mL | Activity (Calvarial osteoblast [46]): Active | fold change (FC) [47]: 18 | ECmax (Calvarial osteoblast [6]): 1000 pM | half-life [48]: 5.85 h | fold change (FC) [49]: 2.5 | CL/F [50]: 17.3 mL/min/kg | Activity (Rattus norvegicus [51]): Active | fold change (FC) [52]: 4.4

COc1cccc([C@H]2CC(=O)c3cc(NC(=O)c4cc(OC)c(OC)c(OC)c4)ccc3O2)c1
Activity (Calvarial osteoblast [53]): Active
